Patent publication US10954219B2, “1,3-benzodioxole derivative” (DAIICHI SANKYO COMPANY, LIMITED, priority 2014, dated 2021)

What was measured:
PRC2-EZH2 (WT EZH2) = molecular target: T1, PRC2-EZH2 (WT EZH2) (Homo sapiens, UniProt Q15910); assay: EZH2 methyltransferase inhibitory activity evaluation; format: biochemical; settings: PRC2-EZH2, biotin-H3 peptide, 3H-SAM, 2 hours
T1 construct: made in house

PRC2-EZH1 (WT EZH1) = PRC2-EZH1 (WT EZH1) (Homo sapiens, UniProt Q92800); assay: EZH1 methyltransferase inhibitory activity evaluation
PRC2-EZH1 (WT EZH1), sequence (Q92800 whole entry): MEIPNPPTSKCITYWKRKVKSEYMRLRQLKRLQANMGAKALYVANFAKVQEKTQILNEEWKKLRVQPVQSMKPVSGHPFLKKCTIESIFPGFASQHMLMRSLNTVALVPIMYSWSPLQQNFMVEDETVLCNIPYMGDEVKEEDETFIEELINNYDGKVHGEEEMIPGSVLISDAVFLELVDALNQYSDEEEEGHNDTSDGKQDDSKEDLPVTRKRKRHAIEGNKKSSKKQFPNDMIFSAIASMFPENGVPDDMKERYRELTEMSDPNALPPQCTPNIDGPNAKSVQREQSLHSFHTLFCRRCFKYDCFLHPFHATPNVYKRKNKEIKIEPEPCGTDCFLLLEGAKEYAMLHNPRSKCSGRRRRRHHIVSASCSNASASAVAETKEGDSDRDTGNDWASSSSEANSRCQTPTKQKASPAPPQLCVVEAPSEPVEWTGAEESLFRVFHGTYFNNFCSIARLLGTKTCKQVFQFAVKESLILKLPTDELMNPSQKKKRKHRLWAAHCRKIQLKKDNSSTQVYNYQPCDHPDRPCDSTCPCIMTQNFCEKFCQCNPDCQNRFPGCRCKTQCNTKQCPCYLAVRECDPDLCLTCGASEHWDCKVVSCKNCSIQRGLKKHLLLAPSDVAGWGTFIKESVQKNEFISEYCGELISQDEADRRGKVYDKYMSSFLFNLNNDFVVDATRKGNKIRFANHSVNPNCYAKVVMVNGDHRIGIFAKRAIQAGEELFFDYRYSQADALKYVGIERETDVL
PRC2-EZH1 (WT EZH1), sequence (O75530 whole entry partner): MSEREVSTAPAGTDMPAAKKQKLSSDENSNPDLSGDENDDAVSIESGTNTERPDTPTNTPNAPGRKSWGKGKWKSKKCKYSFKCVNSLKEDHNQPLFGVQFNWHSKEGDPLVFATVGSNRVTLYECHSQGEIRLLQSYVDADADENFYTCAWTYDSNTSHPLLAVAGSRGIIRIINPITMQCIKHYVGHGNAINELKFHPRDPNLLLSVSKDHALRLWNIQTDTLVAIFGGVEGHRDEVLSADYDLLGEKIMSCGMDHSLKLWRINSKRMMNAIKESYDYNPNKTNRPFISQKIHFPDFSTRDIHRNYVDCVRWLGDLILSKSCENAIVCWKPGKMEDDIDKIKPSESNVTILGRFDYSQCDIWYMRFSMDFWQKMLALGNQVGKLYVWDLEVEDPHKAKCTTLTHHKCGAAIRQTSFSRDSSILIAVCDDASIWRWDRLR
PRC2-EZH1 (WT EZH1), sequence (Q15022 whole entry partner): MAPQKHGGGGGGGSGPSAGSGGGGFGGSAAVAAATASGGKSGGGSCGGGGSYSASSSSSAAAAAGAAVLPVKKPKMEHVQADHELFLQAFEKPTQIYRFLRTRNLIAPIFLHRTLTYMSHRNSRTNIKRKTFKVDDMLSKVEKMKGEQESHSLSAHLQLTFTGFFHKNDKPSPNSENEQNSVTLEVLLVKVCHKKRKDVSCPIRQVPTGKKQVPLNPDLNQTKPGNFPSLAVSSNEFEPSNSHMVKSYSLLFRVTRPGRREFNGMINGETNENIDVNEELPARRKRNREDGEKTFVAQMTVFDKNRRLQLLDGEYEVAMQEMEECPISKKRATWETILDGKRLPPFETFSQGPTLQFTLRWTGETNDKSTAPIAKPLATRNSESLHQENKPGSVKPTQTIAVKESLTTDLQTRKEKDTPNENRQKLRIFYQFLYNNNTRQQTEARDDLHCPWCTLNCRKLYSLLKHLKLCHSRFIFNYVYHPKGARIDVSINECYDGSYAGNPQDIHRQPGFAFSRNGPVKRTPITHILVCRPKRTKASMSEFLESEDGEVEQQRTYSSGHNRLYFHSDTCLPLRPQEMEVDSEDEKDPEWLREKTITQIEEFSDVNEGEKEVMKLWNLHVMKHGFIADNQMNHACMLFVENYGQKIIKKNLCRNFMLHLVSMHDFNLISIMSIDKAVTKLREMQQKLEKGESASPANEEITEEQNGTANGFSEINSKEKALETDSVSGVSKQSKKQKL
PRC2-EZH1 (WT EZH1), sequence (Q09028 whole entry partner): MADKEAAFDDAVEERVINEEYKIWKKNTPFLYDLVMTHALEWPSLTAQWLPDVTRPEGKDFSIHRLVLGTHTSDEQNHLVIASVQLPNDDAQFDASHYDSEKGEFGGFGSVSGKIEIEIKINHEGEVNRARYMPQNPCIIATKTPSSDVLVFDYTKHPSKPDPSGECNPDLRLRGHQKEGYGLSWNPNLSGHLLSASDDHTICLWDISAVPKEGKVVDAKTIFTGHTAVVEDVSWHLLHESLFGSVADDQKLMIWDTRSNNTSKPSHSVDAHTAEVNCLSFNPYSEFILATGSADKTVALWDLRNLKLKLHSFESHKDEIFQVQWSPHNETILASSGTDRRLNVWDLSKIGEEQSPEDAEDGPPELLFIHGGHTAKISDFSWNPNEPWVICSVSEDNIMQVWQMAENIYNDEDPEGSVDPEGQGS
PRC2-EZH1 (WT EZH1), sequence (Q6ZN18 whole entry partner): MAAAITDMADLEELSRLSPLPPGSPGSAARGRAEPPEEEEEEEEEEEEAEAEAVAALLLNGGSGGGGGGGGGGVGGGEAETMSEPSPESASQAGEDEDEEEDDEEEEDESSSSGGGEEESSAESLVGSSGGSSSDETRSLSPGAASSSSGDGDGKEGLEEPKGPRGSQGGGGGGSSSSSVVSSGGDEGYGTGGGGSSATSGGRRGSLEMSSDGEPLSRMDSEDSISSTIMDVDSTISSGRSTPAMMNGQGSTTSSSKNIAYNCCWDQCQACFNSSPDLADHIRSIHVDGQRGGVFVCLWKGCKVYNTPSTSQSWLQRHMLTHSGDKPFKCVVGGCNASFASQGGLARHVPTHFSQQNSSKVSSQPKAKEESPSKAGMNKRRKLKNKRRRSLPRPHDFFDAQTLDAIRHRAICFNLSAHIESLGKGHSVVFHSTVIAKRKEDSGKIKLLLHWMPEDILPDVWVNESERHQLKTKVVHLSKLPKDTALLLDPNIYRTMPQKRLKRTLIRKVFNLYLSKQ

[1] = system: Intracellular H3K27me3 in HCT116 cells; assay: Intracellular H3K27me3 inhibitory activity evaluation; format: cell-based; settings: Homo sapiens, HCT-116, 72 h, 3 days, AlphaLISA, read-out: Test Example 3 H3K27me3 inhibition (HCT116) IC50

T1 sequence (Q15910 whole entry): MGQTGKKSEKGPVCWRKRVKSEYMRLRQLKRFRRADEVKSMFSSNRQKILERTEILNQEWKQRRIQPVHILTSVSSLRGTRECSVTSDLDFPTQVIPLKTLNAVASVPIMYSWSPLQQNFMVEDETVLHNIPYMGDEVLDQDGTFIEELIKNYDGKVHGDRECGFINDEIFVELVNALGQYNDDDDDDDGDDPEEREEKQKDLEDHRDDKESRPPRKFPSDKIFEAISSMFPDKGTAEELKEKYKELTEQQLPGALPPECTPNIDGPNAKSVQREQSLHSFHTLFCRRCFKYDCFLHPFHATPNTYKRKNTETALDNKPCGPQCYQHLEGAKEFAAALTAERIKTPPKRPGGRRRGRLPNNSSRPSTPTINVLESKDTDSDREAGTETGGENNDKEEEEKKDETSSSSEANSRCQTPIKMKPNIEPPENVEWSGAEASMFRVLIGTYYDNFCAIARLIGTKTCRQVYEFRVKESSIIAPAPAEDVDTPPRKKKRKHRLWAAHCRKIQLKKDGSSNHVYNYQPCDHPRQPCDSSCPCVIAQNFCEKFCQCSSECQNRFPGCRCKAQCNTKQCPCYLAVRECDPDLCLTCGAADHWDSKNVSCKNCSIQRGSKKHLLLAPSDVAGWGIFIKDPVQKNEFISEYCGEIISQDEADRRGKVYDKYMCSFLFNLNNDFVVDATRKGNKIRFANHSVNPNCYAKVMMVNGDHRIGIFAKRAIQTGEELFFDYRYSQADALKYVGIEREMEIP
T1 sequence (O75530 whole entry partner): as the sequence (O75530 whole entry partner) above
T1 sequence (Q15022 whole entry partner): as the sequence (Q15022 whole entry partner) above

Row | IC50 (PRC2-EZH2 (WT EZH2)) [nM] | IC50 (PRC2-EZH1 (WT EZH1)) [nM] | IC50 [1] [nM] | Compound
1 | 16 | 21 | 5.9 | Cc1cc(C)c(CNC(=O)c2cc(Br)c3c(c2C)OC(C)([C@H]2CC[C@H](N)CC2)O3)c(=O)[nH]1 (relative stereo) [Example 13, 2-(trans-4-Aminocyclohexyl)-7-bromo-N-[(4,6-dimethyl-2-oxo-1,2-dihydropyridin-3-yl)methyl]-2,4-dimethyl-1,3-benzodioxole-5-carboxamide]
2 | 12 | 9.4 | 1.4 | COc1cc(C)[nH]c(=O)c1CNC(=O)c1cc(Br)c2c(c1C)OC(C)([C@H]1CC[C@H](N(C)C)CC1)O2 (relative stereo) [Example 16, 7-Bromo-2-[trans-4-(dimethylamino)cyclohexyl]-N-[(4-methoxy-6-methyl-2-oxo-1,2-dihydropyridin-3-yl)methyl]-2,4-dimethyl-1,3-benzodioxole-5-carboxamide]
3 | 23 | 17 | 1.2 | CCc1cc(C)[nH]c(=O)c1CNC(=O)c1cc(Br)c2c(c1C)OC(C)([C@H]1CC[C@H](N(C)C)CC1)O2 (relative stereo) [Example 17, 7-Bromo-2-[trans-4-(dimethylamino)cyclohexyl]-N-[(4-ethyl-6-methyl-2-oxo-1,2-dihydropyridin-3-yl)methyl]-2,4-dimethyl-1,3-benzodioxole-5-carboxamide]
4 | 23 | 19 | 5.8 | CCCc1cc(C)[nH]c(=O)c1CNC(=O)c1cc(Br)c2c(c1C)OC(C)([C@H]1CC[C@H](N(C)C)CC1)O2 (relative stereo) [Example 18, 7-Bromo-2-[trans-4-(dimethylamino)cyclohexyl]-2,4-dimethyl-N-[(6-methyl-2-oxo-4-propyl-1,2-dihydropyridin-3-yl)methyl]-1,3-benzodioxole-5-carboxamide]
5 | 25 | 28 | 11 | CCN[C@H]1CC[C@H](C2(C)Oc3c(Br)cc(C(=O)NCc4c(C)cc(C)[nH]c4=O)c(C)c3O2)CC1 (relative stereo) [Example 19, 7-Bromo-N-[(4,6-dimethyl-2-oxo-1,2-dihydropyridin-3-yl)methyl]-2-[trans-4-(ethylamino)cyclohexyl]-2,4-dimethyl-1,3-benzodioxole-5-carboxamide]
6 | 17 | 23 | 2.8 | CCN(C)[C@H]1CC[C@H](C2(C)Oc3c(Br)cc(C(=O)NCc4c(C)cc(C)[nH]c4=O)c(C)c3O2)CC1 (relative stereo) [Example 20, 7-Bromo-N-[(4,6-dimethyl-2-oxo-1,2-dihydropyridin-3-yl)methyl]-2-[trans-4-[N-ethyl(N-methyl)amino]cyclohexyl]-2,4-dimethyl-1,3-benzodioxole-5-carboxamide]
7 | 18 | 60 | 10 | CCN(CC)[C@H]1CC[C@H](C2(C)Oc3c(Br)cc(C(=O)NCc4c(C)cc(C)[nH]c4=O)c(C)c3O2)CC1 (relative stereo) [Example 21, 7-Bromo-2-[trans-4-(diethylamino)cyclohexyl]-N-[(4,6-dimethyl-2-oxo-1,2-dihydropyridin-3-yl)methyl]-2,4-dimethyl-1,3-benzodioxole-5-carboxamide]
8 | 5.6 | 4.1 | 2.8 | Cc1cc(C)c(CNC(=O)c2ccc3c(c2C)OC(C)([C@H]2CC[C@H](N(C)C)CC2)O3)c(=O)[nH]1 (relative stereo) [Example 23, 2-[trans-4-(Dimethylamino)cyclohexyl]-N-[(4,6-dimethyl-2-oxo-1,2-dihydropyridin-3-yl)methyl]-2,4-dimethyl-1,3-benzodioxole-5-carboxamide]
9 | 12 | 140 | 19 | Cc1cc(C)c(CNC(=O)c2cc(Br)c3c(c2C)OC(C)([C@H]2CC[C@H](CN(C)C)CC2)O3)c(=O)[nH]1 (relative stereo) [Example 24, 7-Bromo-2-[trans-4-[(dimethylamino)methyl]cyclohexyl]-N-[(4,6-dimethyl-2-oxo-1,2-dihydropyridin-3-yl)methyl]-2,4-dimethyl-1,3-benzodioxole-5-carboxamide]
10 | 22 | 23 | 3.8 | Cc1cc(C)c(CNC(=O)c2cc(Br)c3c(c2C)OC(C)(C[C@H]2CC[C@@H](N(C)C)CC2)O3)c(=O)[nH]1 (relative stereo) [Example 27, 7-Bromo-2-[[cis-4-(dimethylamino)cyclohexyl]methyl]-N-[(4,6-dimethyl-2-oxo-1,2-dihydropyridin-3-yl)methyl]-2,4-dimethyl-1,3-benzodioxole-5-carboxamide]
11 | 20 | 78 | 14 | Cc1cc(C)c(CNC(=O)c2cc(Br)c3c(c2C)OC(C)(C[C@H]2CC[C@H](N(C)C)CC2)O3)c(=O)[nH]1 (relative stereo) [Example 28, 7-Bromo-2-[[trans-4-(dimethylamino)cyclohexyl]methyl]-N-[(4,6-dimethyl-2-oxo-1,2-dihydropyridin-3-yl)methyl]-2,4-dimethyl-1,3-benzodioxole-5-carboxamide]
12 | 17 | 30 | 4.8 | CN[C@H]1CC[C@H](C2(C)Oc3c(Cl)cc(C(=O)NCc4c(C)cc(C)[nH]c4=O)c(C)c3O2)CC1 (relative stereo) [Example 32, 7-Chloro-N-[(4,6-dimethyl-2-oxo-1,2-dihydropyridin-3-yl)methyl]-2,4-dimethyl-2-[trans-4-(methylamino)cyclohexyl]-1,3-benzodioxole-5-carboxamide]
13 | 28 | 260 | 14 | Cc1cc(C)c(CNC(=O)c2cc(Cl)c3c(c2C)OC(C)([C@H]2CC[C@H](N(C)C=O)CC2)O3)c(=O)[nH]1 (relative stereo) [Example 33, 7-Chloro-N-[(4,6-dimethyl-2-oxo-1,2-dihydropyridin-3-yl)methyl]-2-[trans-4-[formyl(methyl)amino]cyclohexyl]-2,4-dimethyl-1,3-benzodioxole-5-carboxamide]
14 | 13 | 13 | 1.6 | COc1cc(C)[nH]c(=O)c1CNC(=O)c1cc(Cl)c2c(c1C)OC(C)([C@H]1CC[C@H](N(C)C)CC1)O2 (relative stereo) [Example 36, 7-Chloro-2-[trans-4-(dimethylamino)cyclohexyl]-N-[(4-methoxy-6-methyl-2-oxo-1,2-dihydropyridin-3-yl)methyl]-2,4-dimethyl-1,3-benzodioxole-5-carboxamide]
15 | 19 | 28 | 1.6 | CCc1cc(C)[nH]c(=O)c1CNC(=O)c1cc(Cl)c2c(c1C)OC(C)([C@H]1CC[C@H](N(C)C)CC1)O2 (relative stereo) [Example 37, 7-Chloro-2-[trans-4-(dimethylamino)cyclohexyl]-N-[(4-ethyl-6-methyl-2-oxo-1,2-dihydropyridin-3-yl)methyl]-2,4-dimethyl-1,3-benzodioxole-5-carboxamide]
16 |  |  | 11 | Cc1cc(C)c(CNC(=O)c2cc(Br)c3c(c2C)OC(C)([C@H]2CC[C@@H](N(C)C)CC2)O3)c(=O)[nH]1 (relative stereo) [Example 41, 7-Bromo-2-[cis-4-(dimethylamino)cyclohexyl]-N-[(4,6-dimethyl-2-oxo-1,2-dihydropyridin-3-yl)methyl]-2,4-dimethyl-1,3-benzodioxole-5-carboxamide]
17 | 6.7 | 72 | 3.4 | Cc1cc(C)c(CNC(=O)c2cc(F)c3c(c2C)OC(C)([C@H]2CC[C@H](N(C)C)CC2)O3)c(=O)[nH]1 (relative stereo) [Example 46, 2-[trans-4-(Dimethylamino)cyclohexyl]-N-[(4,6-dimethyl-2-oxo-1,2-dihydropyridin-3-yl)methyl]-7-fluoro-2,4-dimethyl-1,3-benzodioxole-5-carboxamide]
18 | 10 | 22 | 1.4 | Cc1cc(C)c(CNC(=O)c2cc(C)c3c(c2C)OC(C)([C@H]2CC[C@H](N(C)C)CC2)O3)c(=O)[nH]1 (relative stereo) [Example 47, 2-[trans-4-(Dimethylamino)cyclohexyl]-N-[(4,6-dimethyl-2-oxo-1,2-dihydropyridin-3-yl)methyl]-2,4,7-trimethyl-1,3-benzodioxole-5-carboxamide]
19 | 22 |  | 9 | Cc1cc(C)c(CNC(=O)c2cc(Br)c3c(c2C)OC(C)(C2CCOCC2)O3)c(=O)[nH]1 (stereo not drawn) [Example 2, 7-Bromo-N-[(4,6-dimethyl-2-oxo-1,2-dihydropyridin-3-yl)methyl]-2,4-dimethyl-2-(tetrahydropyran-4-yl)-1,3-benzodioxole-5-carboxamide]
20 | 11 |  | 13 | CCCN1CCC([C@@]2(C)Oc3c(Br)cc(C(=O)NCc4c(C)cc(C)[nH]c4=O)c(C)c3O2)CC1 [Example 9, (2R)-7-Bromo-N-[(4,6-dimethyl-2-oxo-1,2-dihydropyridin-3-yl)methyl]-2,4-dimethyl-2-(1-propyl-4-piperidyl)-1,3-benzodioxole-5-carboxamide]
21 | 9.1 |  | 3.7 | CCS(=O)(=O)N1CCC([C@@]2(C)Oc3c(Br)cc(C(=O)NCc4c(C)cc(C)[nH]c4=O)c(C)c3O2)CC1 [Example 11, (2R)-7-Bromo-N-[(4,6-dimethyl-2-oxo-1,2-dihydropyridin-3-yl)methyl]-2-(1-ethylsulfonyl-4-piperidyl)-2,4-dimethyl-1,3-benzodioxole-5-carboxamide]
22 | 14 |  | 1.6 | Cc1cc(C)c(CNC(=O)c2cc(Br)c3c(c2C)OC(C)([C@@H]2CC[C@@H](N(C)C)CO2)O3)c(=O)[nH]1 (stereo partly drawn) [Example 22, 7-Bromo-2-[(2S,5R)-5-(dimethylamino)tetrahydropyran-2-yl]-N-[(4,6-dimethyl-2-oxo-1,2-dihydropyridin-3-yl)methyl]-2,4-dimethyl-1,3-benzodioxole-5-carboxamide]
